Assays:
[1] = system: PD20 cells, FANCD2-/- or +FANCD2; assay: Short-term viability assay; assay type: cell-based, human; conditions: PD20 FANCD2-/- vs +FANCD2
[2] = system: LN229 MGMT+/- cells with shRNA targeting MSH6, MLH1, PMS2, or MSH3; assay: Short-term viability assay, MMR shRNA lines; assay type: cell-based, human; conditions: shMSH6, shMLH1, shPMS2, shMSH3
[3] = system: LN229 MGMT-/MMR- intracranial tumors; assay: Intracranial tumor model; assay type: in vivo, mouse; conditions: 25 mg/kg IP M-F × 1 week
[4] = system: CHK1 and CHK2 phosphorylation in LN229 MGMT+/-, MMR+/- cells; assay: Western blotting of CHK1 and CHK2 phosphorylation; assay type: cell-based, human; conditions: 20 µM, 24 or 48 h
Description: Western Blotting. For phospho-protein analysis experiments, cells were lysed in 1X RIPA buffer (Cell Signaling Technology, #9806) supplemented with 1X Protease Inhibitor Cocktail (Roche) and 1X PhosSTOP Phosphatase Inhibitor Cocktail (Sigma). For all other western blot analyses, cells were lysed in lysis buffer (50 mM HEPES, 250 mM NaCl, 5 mM EDTA, 1% NP-40) supplemented with 1X Protease Inhibitor Cocktail (Roche). The de-ubiquitination inhibitor N-ethylmaleimide (NEM, 4 mM) was added in FANCD2 ubiquitination analysis experiments. Proteins were separated using NuPAGE 4-12% Bis-Tris or 3-8% Tris-Acetate Gels (Invitrogen) and transferred to Immobilon-P PVDF membrane (Millipore) for western blotting. Membranes were blocked with 5% milk in TBS-T for 1 h prior to primary antibody addition overnight at 4° C. […] Where shown, bands were quantified using ImageJ software.

[5] = Maximum tolerated dose study in healthy mice; assay type: in vivo, mouse
Description: Healthy mice were treated with escalating doses of KL-50 (4a) (0, 25, 50, 100, and 200 mg/kg × 1 dose), and monitored over time for changes in both weights and hematologic profiles. Mice in the higher dosage groups (100 or 200 mg/kg) experienced a greater than 10% weight loss after treatment administration, which regressed to baseline at the end of one week (FIG. 6B). […] As the main dose limiting systemic toxicity of TMZ (1a) is myelosuppression, complete blood counts were measured for all mice on day 0 before treatment and subsequently on day 7 after drug administration.

[6] = system: DLD1 MSH6-deficient cells; assay: Short-term viability assay with or without O6BG; assay type: cell-based, human; conditions: with or without O6BG-induced MGMT depletion
From the text: (§1) Short-term Cell Viability Assay.

[7] = system: HCT116 MLH1-/- cells or HCT116 +Chr3 cells; assay: Short-term viability assay with or without O6BG; assay type: cell-based, human
From the text: as §1

Description for BJ fibroblast cells: Short-term Cell Viability Assay. Cells were seeded in 96-well plates at 1000 or 2000 cells/well and allowed to adhere at 23° C. for 60 min and then incubated overnight at 37° C. […] Cells were imaged on a Cytation 3 imaging reader (BioTek) and quantified using CellProfiler software.

NC(=O)c1ncn2c(=O)n(CCF)nnc12 [KL-50]
sensitivity of FANCD2-deficient cells [1]: hypersensitive | activity in MGMT- LN229 cells lacking other MMR proteins [2]: confirmed | intracranial tumor growth [3]: effective | CHK1 and CHK2 phosphorylation [4]: induced CHK1 and CHK2 phosphorylation in MGMT- cells regardless of MMR status | tolerability ([5]; 0, 25, 50, 100, 200 mg/kg × 1 dose): well-tolerated | mice observably ill warranting euthanasia ([5]; 200 mg/kg): Two of three mice | weight loss after treatment administration ([5]; 100 or 200 mg/kg, regressed to baseline at one week): greater than 10% | complete blood counts ([5]; day 7, all cohorts): within normal physiological ranges | cytotoxicity in normal human fibroblast cells (BJ fibroblast cells): no increase in toxicity | activity in DLD1 cells [6]: toxic to these cells, but only after O^6BG-induced MGMT depletion | activity in HCT116 cells [7]: selective tumor cell killing specifically in the setting of O^6BG-induced MGMT suppression

Source: patent US20230212202A1, “TREATMENT OF MGMT DEFICIENT CANCER WITH 2-FLUOROETHYL-SUBSTITUTED NITROSOUREAS AND OTHER COMPOUNDS” (YALE UNIVERSITY, priority 2021, published 2023)
